Assay results published in ChEMBL document CHEMBL1201862, “PubChem BioAssay data set” (2004).
“And” between values parts separate entries of the source, which are not always exact repeats. Equal entries are not always repeated.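 Tested at 5 concentrations; 48 h exposure; 96-well plates; endpoints linearly interpolated, else capped at highest concentration. Abbreviation: GI50, concentration required for 50% inhibition of growth.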 The source made the active and inactive calls. No stated cut-off is given here; in the data, active = GI50 up to about 1.1 µM and inactive = higher.

Experiments:
Assay in all cases: growth of human tumour cells (NCI), 48 h
ACHN = test system: ACHN
M14 = test system: M14
OVCAR-3 = test system: OVCAR-3
SK-OV-3 = test system: SK-OV-3
SN12C = test system: SN12C
IGROV-1 = test system: IGROV-1
COLO 205 = test system: COLO 205
HCT-116 = test system: HCT-116
NCI-H226 = test system: NCI-H226
A498 = test system: A498
LXFL 529 = test system: LXFL 529
SF-295 = test system: SF-295
SK-MEL-5 = test system: SK-MEL-5
SF-268 = test system: SF-268
MOLT-4 = test system: MOLT-4
HOP-62 = test system: HOP-62
A549 = test system: A549
SF-539 = test system: SF-539
PC-3 = test system: PC-3

Measured: GI50

COc1c(-c2ccccc2)nc2ccc(Oc3ccccc3)nn12
inactive: ACHN > 58.7 µM | M14 > 59.8 µM | OVCAR-3 > 77.6 µM | SK-OV-3 > 100 µM | SN12C > 56.6 µM | IGROV-1 > 93.8 µM | COLO 205 > 44.7 µM | HCT-116 13.2 µM | NCI-H226 29.7 µM | A498 > 41.4 µM | LXFL 529 > 38.3 µM | SF-295 > 62.8 µM | SK-MEL-5 33.2 µM | SF-268 > 56.4 µM | MOLT-4 14.1 µM | HOP-62 > 100 µM | A549 > 57.5 µM | SF-539 > 59.4 µM

CCn1c2ccccc2c2ccc3c(c21)C(=O)c1ccccc1C3=O
inactive: ACHN > 100 µM | M14 > 100 µM | SK-OV-3 > 100 µM | SN12C > 100 µM | IGROV-1 > 100 µM | COLO 205 55.8 µM | HCT-116 > 100 µM | NCI-H226 > 100 µM | A498 > 100 µM | LXFL 529 > 100 µM | SF-295 91.2 µM | SK-MEL-5 76.6 µM | SF-268 > 100 µM | MOLT-4 61.5 µM | HOP-62 > 100 µM | A549 > 100 µM | SF-539 > 100 µM

CCOC(=N)CC(=O)Nc1ccccc1
inactive: ACHN > 46.5 µM | M14 > 46.5 µM | OVCAR-3 > 31.6 µM | SK-OV-3 > 100 µM | SN12C > 46.5 µM | IGROV-1 > 46.5 µM | COLO 205 > 46.5 µM | HCT-116 > 46.5 µM | NCI-H226 > 31.6 µM | A498 > 46.5 µM | LXFL 529 > 46.5 µM | SF-295 > 100 µM | SK-MEL-5 > 46.5 µM | SF-268 > 46.5 µM | MOLT-4 > 31.6 µM | HOP-62 > 46.5 µM | A549 > 46.5 µM | SF-539 > 46.5 µM

CCOC(=O)C1C(=O)C(C(=O)OCC)C(c2ccccc2)N(C)C1c1ccccc1 (centres undefined)
inactive: ACHN > 100 µM | M14 > 100 µM | OVCAR-3 > 100 µM | SK-OV-3 > 100 µM | SN12C > 100 µM | IGROV-1 > 100 µM | COLO 205 > 100 µM | HCT-116 58.2 µM | NCI-H226 > 100 µM | A498 > 100 µM | LXFL 529 > 100 µM | SF-295 > 100 µM | SK-MEL-5 66.4 µM | SF-268 > 100 µM | MOLT-4 49.5 µM | HOP-62 > 100 µM | A549 > 100 µM | SF-539 > 100 µM

Nc1nc2c3nc(Nc4ccccc4)sc3nc(=O)n2c2sc(Nc3ccccc3)nc12
inactive: ACHN > 100 µM | M14 > 100 µM | SK-OV-3 > 100 µM | SN12C > 100 µM | IGROV-1 > 100 µM | COLO 205 > 100 µM | HCT-116 > 100 µM | NCI-H226 > 100 µM | A498 > 100 µM | LXFL 529 > 100 µM | SF-295 > 100 µM | SK-MEL-5 > 100 µM | SF-268 > 100 µM | MOLT-4 > 100 µM | HOP-62 > 100 µM | A549 > 100 µM | SF-539 > 100 µM

CC(=O)OC1C/C(C)=C/CCC(C)/C=C/C2(C)CCC(C(C)(C)O)C12 (centres undefined)
inactive: ACHN 36 µM | M14 52.6 µM | OVCAR-3 46.7 µM | SK-OV-3 > 100 µM | SN12C 32.1 µM | IGROV-1 36.8 µM | COLO 205 39.8 µM | HCT-116 26.2 µM | NCI-H226 45.1 µM | A498 > 100 µM | LXFL 529 58.5 µM | SF-295 80.7 µM | SK-MEL-5 47.6 µM | SF-268 61.7 µM | MOLT-4 30.4 µM | HOP-62 88.1 µM | A549 53 µM | SF-539 > 100 µM

NNC(=S)N/N=C(\CC1OC(=O)c2ccccc21)c1ccccc1O (centres undefined)
inactive: ACHN 59.3 µM | M14 61.9 µM | OVCAR-3 37.5 µM | SK-OV-3 > 100 µM | SN12C 46.8 µM | IGROV-1 38 µM | COLO 205 47 µM | HCT-116 36.6 µM | NCI-H226 33.6 µM | A498 33.7 µM | LXFL 529 53.1 µM | SF-295 20.3 µM | SK-MEL-5 42.3 µM | SF-268 50 µM | MOLT-4 23 µM | HOP-62 33 µM | A549 64.3 µM | SF-539 19.5 µM

O=C1C=Cc2c(-c3ccccc3)oc3cccc1c23
inactive: ACHN 13.2 µM | M14 30.5 µM | OVCAR-3 20.9 µM | SK-OV-3 24.4 µM | SN12C 9.82 µM | IGROV-1 15.8 µM | COLO 205 15.8 µM | HCT-116 16.9 µM | NCI-H226 11.3 µM | A498 15.4 µM | LXFL 529 22.8 µM | SF-295 25.7 µM | SK-MEL-5 20.5 µM | SF-268 21.1 µM | MOLT-4 3.76 µM | HOP-62 13.8 µM | A549 6.98 µM | SF-539 12 µM

C1CCN(c2nc(=[N+]3CCCCC3)ss2)CC1
inactive: ACHN > 100 µM | M14 > 100 µM | SK-OV-3 71.9 µM | SN12C > 100 µM | IGROV-1 > 100 µM | HCT-116 > 100 µM | NCI-H226 19.1 µM | A498 > 100 µM | LXFL 529 > 100 µM | SF-295 > 100 µM | SK-MEL-5 > 100 µM | SF-268 82 µM | MOLT-4 > 100 µM | HOP-62 > 100 µM | A549 55.8 µM | SF-539 > 100 µM

COC(=O)[C@@H]1[C@H](O)[C@H](C)[C@H](O)[C@@](C)(O)/C=C\C=C(\C)C(=O)Nc2c(C)c(OC(C)=O)c3c(c2O)C(=O)C(C)=C2OCOC(=C23)/C(C)=C/[C@@](C)(O)[C@H](O)[C@@H](C)[C@H]1OC(C)=O
inactive: ACHN 79.4 µM | OVCAR-3 43.1 µM and 32 µM | SK-OV-3 82.2 µM | SN12C 43.6 µM | PC-3 > 66.8 µM | IGROV-1 > 100 µM and 53 µM | COLO 205 72.9 µM and 14.6 µM | HCT-116 29.2 µM | NCI-H226 > 100 µM and 94.2 µM | A498 > 66.8 µM | LXFL 529 57.4 µM | SF-295 88.5 µM | SK-MEL-5 24.5 µM | SF-268 4.76 µM | MOLT-4 27.7 µM and 61.7 µM | HOP-62 40.5 µM | A549 43.3 µM | SF-539 > 100 µM and 50.7 µM

COc1cc(/C=C/c2cccnc2)cc(OC)c1OC
inactive: ACHN > 100 µM | M14 > 100 µM | OVCAR-3 > 100 µM | SN12C > 100 µM | IGROV-1 > 100 µM | COLO 205 > 100 µM | HCT-116 > 100 µM | NCI-H226 > 100 µM | A498 > 100 µM | LXFL 529 92.7 µM | SF-295 > 100 µM | SK-MEL-5 47.5 µM | SF-268 > 100 µM | MOLT-4 > 100 µM | HOP-62 70.6 µM | A549 > 100 µM | SF-539 > 100 µM

CN(C)CCNc1nc(-c2cccs2)cc(-c2cccs2)n1
inactive: M14 12.4 µM | OVCAR-3 22.6 µM | SK-OV-3 > 10 µM | SN12C 12.9 µM | IGROV-1 24.4 µM | COLO 205 12.1 µM | HCT-116 11.3 µM | NCI-H226 15.9 µM | A498 11.9 µM | LXFL 529 14.8 µM | SF-295 14.3 µM | SK-MEL-5 15.3 µM | MOLT-4 3 µM | HOP-62 18.7 µM | A549 15.6 µM | SF-539 15.1 µM
